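Each compound was tested at five concentrations against cells in 96-well plates for 48 hours. GI50 is the concentration that inhibits growth by half.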 Active and inactive are the calls of the source. Cut-off read from the data, not from the text of the source: active = GI50 up to about 1.1 µM and inactive = higher.
How the values were obtained:
Assay in all cases: growth of human tumour cells (NCI), 48 h
786-0 = system: 786-0
A498 = system: A498
A549 = system: A549
ACHN = system: ACHN
BT-549 = system: BT-549
CAKI-1 = system: CAKI-1
CCRF-CEM = system: CCRF-CEM
COLO 205 = system: COLO 205
DU-145 = system: DU-145
EKVX = system: EKVX
HCC 2998 = system: HCC 2998
HCT-116 = system: HCT-116
HCT-15 = system: HCT-15
HL-60 = system: HL-60
HOP-62 = system: HOP-62
HOP-92 = system: HOP-92
HT-29 = system: HT-29
Hs-578T = system: Hs-578T
IGROV-1 = system: IGROV-1
K562 = system: K562
KM12 = system: KM12
LOX IMVI = system: LOX IMVI
M14 = system: M14
MCF7 = system: MCF7
MDA-MB-231 = system: MDA-MB-231
MDA-MB-435 = system: MDA-MB-435
MDA-N = system: MDA-N
MOLT-4 = system: MOLT-4
Malme-3M = system: Malme-3M
NCI-H226 = system: NCI-H226
NCI-H23 = system: NCI-H23
NCI-H460 = system: NCI-H460
NCI-H522 = system: NCI-H522
NCI/ADR-RES = system: NCI/ADR-RES
OVCAR-4 = system: OVCAR-4
OVCAR-5 = system: OVCAR-5
OVCAR-8 = system: OVCAR-8
PC-3 = system: PC-3
RPMI-8226 = system: RPMI-8226
RXF 393 = system: RXF 393
SF-268 = system: SF-268
SF-295 = system: SF-295
SF-539 = system: SF-539
SK-MEL-28 = system: SK-MEL-28
SK-MEL-2 = system: SK-MEL-2
SK-MEL-5 = system: SK-MEL-5
SK-OV-3 = system: SK-OV-3
SN12C = system: SN12C
SNB-19 = system: SNB-19
SNB-75 = system: SNB-75
SR = system: SR
SW-620 = system: SW-620
T47D = system: T47D
TK-10 = system: TK-10
U-251 = system: U-251
UACC-257 = system: UACC-257
UACC-62 = system: UACC-62
UO-31 = system: UO-31
OVCAR-3 = system: OVCAR-3

Q: What does the source list for `COCn1c(C)c(C)c2c(=O)oc(C)nc21`?
A: GI50 (786-0): > 100 µM (inactive); GI50 (A498): > 100 µM (inactive); GI50 (A549): > 100 µM (inactive); GI50 (ACHN): > 100 µM (inactive); GI50 (BT-549): > 100 µM (inactive); GI50 (CAKI-1): 0.288 µM (active); GI50 (CCRF-CEM): > 100 µM (inactive); GI50 (COLO 205): > 100 µM (inactive); GI50 (DU-145): > 100 µM (inactive); GI50 (EKVX): > 100 µM (inactive); GI50 (HCC 2998): > 100 µM (inactive); GI50 (HCT-116): > 100 µM (inactive); GI50 (HCT-15): > 100 µM; GI50 (HL-60): > 100 µM (inactive); GI50 (HOP-62): 70.8 µM (inactive); GI50 (HOP-92): > 100 µM (inactive); GI50 (HT-29): > 100 µM (inactive); GI50 (Hs-578T): > 100 µM (inactive); GI50 (IGROV-1): > 100 µM (inactive); GI50 (K562): > 100 µM (inactive); GI50 (KM12): > 100 µM (inactive); GI50 (LOX IMVI): > 100 µM (inactive); GI50 (M14): > 100 µM (inactive); GI50 (MCF7): > 100 µM (inactive); GI50 (MDA-MB-231): > 100 µM (inactive); GI50 (MDA-MB-435): > 100 µM (inactive); GI50 (MDA-N): > 100 µM (inactive); GI50 (MOLT-4): > 100 µM (inactive); GI50 (Malme-3M): > 100 µM (inactive); GI50 (NCI-H226): > 100 µM (inactive); GI50 (NCI-H23): > 100 µM (inactive); GI50 (NCI-H460): > 100 µM (inactive); GI50 (NCI-H522): 94.2 µM (inactive); GI50 (NCI/ADR-RES): > 100 µM (inactive); GI50 (OVCAR-4): > 100 µM (inactive); GI50 (OVCAR-5): > 100 µM (inactive); GI50 (OVCAR-8): > 100 µM (inactive); GI50 (PC-3): > 100 µM (inactive); GI50 (RPMI-8226): > 100 µM (inactive); GI50 (RXF 393): > 100 µM (inactive); GI50 (SF-268): > 100 µM (inactive); GI50 (SF-295): > 100 µM (inactive); GI50 (SF-539): > 100 µM (inactive); GI50 (SK-MEL-28): > 100 µM (inactive); GI50 (SK-MEL-2): > 100 µM (inactive); GI50 (SK-MEL-5): > 100 µM (inactive); GI50 (SK-OV-3): > 100 µM (inactive); GI50 (SN12C): > 100 µM (inactive); GI50 (SNB-19): > 100 µM (inactive); GI50 (SNB-75): 83.4 µM (inactive); GI50 (SR): > 100 µM (inactive); GI50 (SW-620): > 100 µM (inactive); GI50 (T47D): > 100 µM (inactive); GI50 (TK-10): > 100 µM (inactive); GI50 (U-251): > 100 µM (inactive); GI50 (UACC-257): > 100 µM (inactive); GI50 (UACC-62): > 100 µM (inactive); GI50 (UO-31): 89.1 µM (inactive)

Q: Which results are given for `CC(=O)O[C@H]1CC[C@@]2(C)C(=CC[C@H]3[C@@H]4C/C(=C\c5ccncc5)[C@H](OC(C)=O)[C@@]4(C)CC[C@@H]32)C1`?
A: GI50 (786-0): 11.3 µM (inactive); GI50 (A498): 12.9 µM (inactive); GI50 (A549): 6.08 µM (inactive); GI50 (ACHN): 15.1 µM (inactive); GI50 (BT-549): 3.28 µM (inactive); GI50 (CAKI-1): 11.2 µM (inactive); GI50 (CCRF-CEM): 3.35 µM (inactive); GI50 (COLO 205): 4.08 µM (inactive); GI50 (DU-145): 15.4 µM (inactive); GI50 (EKVX): 9.55 µM (inactive); GI50 (HCC 2998): 13.1 µM (inactive); GI50 (HCT-116): 11.9 µM (inactive); GI50 (HCT-15): 3.45 µM; GI50 (HL-60): 4.01 µM (inactive); GI50 (HOP-62): 4.54 µM (inactive); GI50 (HOP-92): 3.48 µM (inactive); GI50 (HT-29): 6.41 µM (inactive); GI50 (Hs-578T): 6.97 µM (inactive); GI50 (IGROV-1): 11.6 µM (inactive); GI50 (K562): 3.15 µM (inactive); GI50 (KM12): 4.57 µM (inactive); GI50 (LOX IMVI): 3.48 µM (inactive); GI50 (M14): 10.9 µM (inactive); GI50 (MCF7): 14.7 µM (inactive); GI50 (MDA-MB-231): 19.1 µM (inactive); GI50 (MDA-MB-435): 12.9 µM (inactive); GI50 (MDA-N): 18.3 µM (inactive); GI50 (MOLT-4): 3.04 µM (inactive); GI50 (Malme-3M): 7.67 µM (inactive); GI50 (NCI-H226): 11.8 µM (inactive); GI50 (NCI-H23): 4.56 µM (inactive); GI50 (NCI-H460): 10.1 µM (inactive); GI50 (NCI-H522): 3.65 µM (inactive); GI50 (NCI/ADR-RES): 4.34 µM (inactive); GI50 (OVCAR-3): 11.3 µM (inactive); GI50 (OVCAR-4): 4.65 µM (inactive); GI50 (OVCAR-5): 16.9 µM (inactive); GI50 (OVCAR-8): 11.8 µM (inactive); GI50 (PC-3): 18.2 µM (inactive); GI50 (RPMI-8226): 2.46 µM (inactive); GI50 (RXF 393): 2.73 µM (inactive); GI50 (SF-268): 10.9 µM (inactive); GI50 (SF-295): 5.02 µM (inactive); GI50 (SF-539): 3.95 µM (inactive); GI50 (SK-MEL-28): 5.74 µM (inactive); GI50 (SK-MEL-2): 16.7 µM (inactive); GI50 (SK-MEL-5): 5.47 µM (inactive); GI50 (SK-OV-3): 21.6 µM (inactive); GI50 (SN12C): 16.9 µM (inactive); GI50 (SNB-19): 8.61 µM (inactive); GI50 (SNB-75): 7.62 µM (inactive); GI50 (SR): 2.7 µM (inactive); GI50 (SW-620): 4.14 µM (inactive); GI50 (T47D): 14.2 µM (inactive); GI50 (TK-10): 22.5 µM (inactive); GI50 (U-251): 10 µM (inactive); GI50 (UACC-257): 16.9 µM (inactive); GI50 (UACC-62): 13.2 µM (inactive); GI50 (UO-31): 8.04 µM (inactive)
